Measurements taken from patent US4994457A, “Antiinflammatory compositions and methods” (Pfizer Inc., priority 1987, dated 1991).
Structures can show the parent of a compound that is named as a salt.

Assays:
[1] = test system: Piroxicam-Induced Gastric Lesions in Rats; assay: Protective effect of disodium 5'-guanylate on piroxicam-induced gastric lesions in rats; assay type: in vivo, CD strain (Sprague-Dawley), male; settings: for Lesions/Rat (X +/- SE): mean (SE)
Method: (§1) Adult male "specific pathogen free" rats weighing 140-160 grams of the CD strain (Sprague-Dawley) were obtained from Charles River Breeding Laboratories (Kingston, N.Y.). The animals were acclimated for approximately one week and tested when they reached a body weight of 200-225 grams. The rats were fasted for 16 hours and randomized into groups consisting of 10 animals which were normalized with regard to their average body weight.
(§2) Gastric ulcers were induced in the animals by orally dosing them with a single 120 mg/kg dose of piroxicam (ethanolamine salt) in 2 ml. of aqueous 0.1% methylcellulose (pH=6.8). Those animals receiving disodium 5'-guanylate separately received the second drug in an additional 2 ml. of the same medium at about the same time. Six and one-half hours later, the animals were sacrificed by cervical dislocation and autopsied. The stomachs were surgically removed, dissected along the greater curvature and rinsed with cold water. The stomachs were individually scored for both linear and punctate lesions. The total number of lesions was used for scoring purposes. The data obtained from each group of rats was analyzed after calculation of the mean number +/- the standard error of total gastric lesions. The values obtained were also compared to the controls which received only piroxicam by the two-tailed Student's T-Test for non-paired data.

[2] = test system: Piroxicam Induced Gastric Lesions in Rats; assay: Protective effect of N-acetyl-L-methionine on piroxicam induced gastric lesions in rats; assay type: in vivo, CD strain (Sprague-Dawley), male; settings: for Lesions/Rat (X +/- SE): mean (SE)
Method: as §1, §2
By the procedure of the preceding Example, the protective effect of the N-acetyl-L-methionine on piroxicam induced gastric lesions in rats was determined.

gastric ulcers in rats = settings: Tanaka et al. 1982, Kunimi et al. 1982; cited from earlier work
[3] = test system: gastric mucosal damage of aspirin solutions in rats; settings: Lim et al. 1979; cited from earlier work
[4] = test system: gastrointestinal ulcers induced by the subcutaneous injection of indomethacin; settings: Urishidani et al. 1977; cited from earlier work
[5] = stated as background for single daily dosage; cited from earlier work

SMILES: Nc1nc2c(ncn2[C@@H]2O[C@H](COP(=O)(O)O)[C@@H](O)[C@H]2O)c(=O)[nH]1 [Disodium 5'-Guanylate, guanosine 5'-monophosphate]
- reduction of piroxicam-induced gastric lesions ([1]; healthy fasted rat, oral): significantly reduces piroxicam-induced gastric lesions
- Lesions/Rat (X +/- SE) ([1]; oral 1.0 mg/kg, 20 rats, with 120 mg/kg piroxicam ethanolamine salt): 8.1 (0.7) Lesions/Rat
- Lesions/Rat (X +/- SE) ([1]; oral 3.3 mg/kg, 20 rats, with 120 mg/kg piroxicam ethanolamine salt): 5.8 (0.5) Lesions/Rat
- Lesions/Rat (X +/- SE) ([1]; oral 10.0 mg/kg, 30 rats, with 120 mg/kg piroxicam ethanolamine salt): 4.6 (0.8) Lesions/Rat
- Lesions/Rat (X +/- SE) ([1]; oral 33.0 mg/kg, 40 rats, with 120 mg/kg piroxicam ethanolamine salt): 3.9 (0.6) Lesions/Rat

SMILES: CN1C(C(=O)Nc2ccccn2)=C(O)c2ccccc2S1(=O)=O [Ethanolamine Salt of Piroxicam, 4-hydroxy-2-methyl-N-2-pyridinyl-2H-1,2-benzothiazine-3-carboxamide 1,1-dioxide, reference compound]
- Lesions/Rat (X +/- SE) ([2]; control: 120 mg/kg oral ethanolamine salt of piroxicam alone, 50 rats): 8.0 (0.8) Lesions/Rat
- Lesions/Rat (X +/- SE) ([1]; control: 120 mg/kg oral ethanolamine salt of piroxicam alone, 40 rats, 6.5 h): 8.3 (0.9) Lesions/Rat

SMILES: NCCC(=O)N[C@@H](Cc1cnc[nH]1)C(=O)O [L-carnosine]
- prevention of the exacerbation of gastric ulcers by certain antiinflammatory agents (gastric ulcers in rats): not

SMILES: CSCC[C@H](NC(C)=O)C(=O)O [N-Acetyl-L-methionine, N-acetyl-L-methionine]
- ED50 ([2]; Rattus norvegicus, 6.5 h, oral, 120 mg/kg piroxicam ethanolamine salt, read-out: ED50 (dose of the N-acetylmethionine required to inhibit 50% of control gastric lesions)): 100 to 333 mg/kg
- Lesions/Rat (X +/- SE) ([2]; oral 33 mg/kg, 50 rats, with 120 mg/kg piroxicam ethanolamine salt): 6.9 (0.8) Lesions/Rat
- Lesions/Rat (X +/- SE) ([2]; oral 100 mg/kg, 40 rats, with 120 mg/kg piroxicam ethanolamine salt): 3.9 (0.8) Lesions/Rat
- Lesions/Rat (X +/- SE) ([2]; oral 333 mg/kg, 20 rats, with 120 mg/kg piroxicam ethanolamine salt): 3.5 (0.9) Lesions/Rat

SMILES: CC(=O)NCCC(=O)N[C@@H](Cc1c[nH]cn1)C(=O)O [N-acetyl-L-carnosine, N-(N-acetyl-beta-alanyl)-L-histidine]
- prevention of the exacerbation of gastric ulcers by certain antiinflammatory agents (gastric ulcers in rats): not

SMILES: CC(=O)NCCC(=O)N[C@@H](Cc1c[nH]cn1)C(=O)O [aluminum salts of N-acetyl-L-carnosine, N-(N-acetyl-beta-alanyl)-L-histidine]
- prevention of the exacerbation of gastric ulcers by certain antiinflammatory agents (gastric ulcers in rats): prevent the exacerbation of gastric ulcers

SMILES: CC(=O)N[C@@H](CCC(N)=O)C(=O)O [aluminum salts of N-acetyl-L-glutamine, N-acetyl-L-glutamine]
- prevention of the exacerbation of gastric ulcers by certain antiinflammatory agents (gastric ulcers in rats): prevent the exacerbation of gastric ulcers

SMILES: CSCC[C@H](N)C(=O)O [methionine]
- effect on gastric mucosal damage of aspirin solutions [3]: beneficial effect
- inhibition of gastrointestinal ulcers [4]: inhibit gastrointestinal ulcers

SMILES: CN1C(C(=O)Nc2ccccn2)=C(O)c2ccccc2S1(=O)=O [piroxicam, 4-hydroxy-2-methyl-N-2-pyridinyl-2H-1,2-benzothiazine-3-carboxamide 1,1-dioxide]
- in vivo half-life [5]: long
